According to PMC6315362, “Cytotoxic Potential of the Novel Horseshoe Crab Peptide Polyphemusin III” (Marine Drugs, 2018):
Where a SMILES comes first, the peptide text is derived from it. Bridges are numbered along the chain shown (N, C = ends).

How the values were obtained:
[1] = system: Caspase cascade pathway in HL-60 cells; assay: Gene expression profiling and Oncobox pathway analysis; type: cell-based, human; conditions: versus intact cells, Oncobox
Protocol: To get a deeper molecular insight into the mechanisms of cell death induced by PM III, we profiled gene expression in the PM III treated (1.25, 2.5, and 5 µM) and intact HL-60 cells. Gene expression profiles were further analyzed using the Oncobox bioinformatical platform to measure activation levels of 376 intracellular signaling pathways. We found a significant inhibition of the Caspase cascade (Figure 6), while the TRAF (tumor necrosis factor receptor (TNF-R)-associated factor) pathway was strongly activated (Figure 7) following the PM III treatment. An additional line of evidence for the non-apoptotic mechanism of the PM III mediated activity was provided by the PTEN pathway. […] The activation levels of all signaling pathways profiled in this study and case-to-normal ratios for the respective genes are shown in Supplementary Table S1. Taken together, these facts rather argue for a non-apoptotic mode of the PM III action.
RNA extraction was performed immediately before preparation of sequencing libraries using a QIAGEN RNeasy Kit (Qiagen, Venlo, Netherlands) following the manufacturer’s protocol. Then, the RNA Integrity Number (RIN) was measured using an Agilent 2100 bio-Analyzer. Agilent RNA 6000 Nano or Qubit RNA Assay Kits were used to measure RNA concentration. A KAPA RNA Hyper with RiboErase (KAPA Biosystems, Wilmington, MA, USA) kit was used for further depletion of ribosomal RNA. […] Library concentrations and quality were measured using a Qubit ds DNA HS Assay kit (Life Technologies, Carlsbad, CA, USA) and Agilent Tapestation (Agilent, Santa Clara, CA, USA). RNA sequencing was performed using Illumina HiSeq 3000 equipment for single-end sequencing, 50 bp read length, for approximately 30 million raw reads per each sample. […]
The SABiosciences knowledge base was used to determine structures of intracellular molecular pathways as described previously. […] CNRs were calculated as the ratios of expression levels of a gene in the experimental samples to average expression levels in the control samples. […]

[2] = system: HL-60 cells; assay: Lactate dehydrogenase (LDH)-release assay; type: cell-based, human; conditions: HL-60, 1 h of incubation, 1.56–25 μM, RPMI serum-free medium; two independent series of triplicated experiments
Protocol: The loss of membrane integrity, detected by trypan blue exclusion assay and annexin V-FITC/propidium iodide double staining, was also evaluated by lactate dehydrogenase (LDH)-release. The cytosolic enzyme LDH is released upon cell lysis and therefore can be a marker of cell integrity. The percentage of LDH-leakage from cells enables evaluation of direct cell lysis.
The LDH-release assay (CytoTox 96 Non-Radioactive Cytotoxicity Assay; Promega Corporation, Madison, WI, USA) was performed according to the manufacturer’s protocol. Suspension HL-60 cells (4 × 10^4) were seeded into a 96-well plate in triplicate and incubated for 1 h with various concentrations of polyphemusin III at 100 μL per well in RPMI serum-free medium. Untreated cells served as a control for spontaneous LDH-release and cells treated with 1% Triton X-100 were used as a control for maximal LDH-release. Absorbance was measured at 490 nm using a microplate reader (Eppendorf, Hamburg, Germany). Percent LDH-release was calculated using the following Equation (2):[(experimental LDH-release − spontaneous LDH-release)/(maximal LDH-release − spontaneous LDH-release)] × 100(2)
The dose response curve shown is an average of two independent experiments.

[3] = system: Gram-positive and Gram-negative bacteria; assay: Antimicrobial assay, MIC summarised over the panel of strains; type: cell-based; conditions: E. coli ML35p, K. pneumoniae (CI 287) and S. aureus 209P
Protocol: Bacterial test cultures were grown in the Mueller-Hinton (MH) medium at 37 °C to mid-log phase and then diluted with the 2 x MH medium supplemented with 1.8% NaCl. 50 µL of the bacterial suspension with a final cell concentration of 10^6 CFU/mL were added to aliquots of 50 µL of the peptide solutions and serially diluted with sterilized 0.1% bovine serum albumin in 96-well flat-bottom polystyrene microplates (Eppendorf, Hamburg, Germany). Bacterial cells were incubated for 24 h at 37 °C and 900 rpm on the plate thermoshaker (Biosan, Riga, Latvia). The minimum inhibitory concentrations (MIC) were determined as the lowest peptide concentration that prevented growth of a test microorganism observed as visible turbidity. The results were expressed as median values of three independent triplicated experiments. Assessment of antimicrobial activities of the recombinant PM III, other polyphemusins, and tachyplesins was conducted against Gram-negative (Escherichia coli ML-35p, Klebsiella pneumoniae (clinical isolate, CI 287), Pseudomonas aeruginosa PAO1) and Gram-positive (Staphylococcus aureus ATCC 29213, Staphylococcus aureus 209P, Bacillus subtilis B-886, Micrococcus luteus B-1314) bacteria.

## CC(C)[C@@H]1NC(=O)[C@H](CCCNC(=N)N)NC(=O)[C@H](Cc2ccccc2)NC(=O)[C@@H](NC(=O)CNC(=O)[C@H](CCCNC(=N)N)NC(=O)[C@@H](N)CCCNC(=N)N)CSSC[C@@H](C(=O)N[C@@H](CCCNC(=N)N)C(=O)O)NC(=O)[C@H](CCCNC(=N)N)NC(=O)[C@H](CCC(N)=O)NC(=O)[C@H](Cc2ccccc2)NC(=O)[C@@H]2CSSC[C@H](NC1=O)C(=O)N[C@@H](Cc1ccc(O)cc1)C(=O)N[C@@H](CCCNC(=N)N)C(=O)NCC(=O)N[C@@H](Cc1ccccc1)C(=O)N2 [PM III, polyphemusin III] (H-RRGCFRVCYRGFCFQRCR-OH; disulfide 4-17, 8-13 (inferred); N-terminus assumed)
[1]; HL-60, 1.25 μM
  Caspase Cascade: PAS (pathway activation strength): -13.08
[1]; HL-60, 2.5 μM
  Caspase Cascade: PAS (pathway activation strength): -13.96
[1]; HL-60, 5 μM
  Caspase Cascade: PAS (pathway activation strength): -16.64
[2]
  LDH-release (cell lysis): concentration-dependent lysis
[3]
  reduction in activity compared to PM I, TP I, and TP III: 4 fold
